Values of other authors in patent US8227223B2, “Method and apparatus for facilitating evaluating migration of cells in vitro” (Applied Biophysics, Inc., priority 2009, dated 2012).

Legend:
[1] = system: muscarinic receptor; settings: CHO cells over expressing the muscarinic receptor
[2] = system: β-adrenergic receptor; settings: BAEC endothelial cells
[3] = system: confluent bovine aortic endothelial cells

In the case of `C[N+](C)(C)CCOC(N)=O` [carbachol], the “change of impedance upon binding of the agonist” value ([1]; impedance at 4000 Hz) is given as “doubling of impedance”.
For `CC(C)NCC(O)c1ccc(O)c(O)c1` (stereo not shown) [isoproterenol], the “change of impedance of the cell layer upon agonist binding” value [2] is given as “readily measured increase in the impedance”.
In the case of thrombin, the “change of impedance upon exposure (barrier function)” value [3] is listed as “drop in impedance”.
For `CN1CCN(CC(=O)N2c3ccccc3C(=O)Nc3cccnc32)CC1` [pirenzepine], the “inhibition of the carbachol impedance response” value ([1]; antagonist against carbachol) is listed as “can be inhibited”.
